According to patent EP1433789A1, “Pyrrolopyrazines and their use as selective apoptosis inducers” (Aponetics AG, priority 2002, dated 2004):

What was measured:
Type in all cases: cell-based, human
Jurkat [1] = experiment: Hoechst 33342 nuclear staining (Table 3); set-up: key: 0 relating to no activity; 1 relating to weak activity comprising less than 50% of the cells; score 2 relating to strong activity comprising more than 50% of the cells
Procedure, shortened: (§1)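 Adherent cells (3-5×10^3, pre-spread 24 h) or suspension cells (8-10×10^3) treated with compounds at 10, 3, 1 and 0.3 µM for 24 or 48 h, then Hoechst 33342 stained for 30 min. Apoptotic nuclear morphology scored by fluorescence microscopy: 0 none, 1 weak (<50% cells), 2 strong (>50% cells).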

HeLa = experiment: Hoechst 33342 nuclear staining (Table 3); set-up: key: 0 relating to no activity; 1 relating to weak activity comprising less than 50% of the cells; score 2 relating to strong activity comprising more than 50% of the cells
Procedure, shortened: as §1

Ramos = experiment: Hoechst 33342 nuclear staining (Table 3); set-up: key: 0 relating to no activity; 1 relating to weak activity comprising less than 50% of the cells; score 2 relating to strong activity comprising more than 50% of the cells
Procedure, shortened: as §1

K562 = experiment: Hoechst 33342 nuclear staining (Table 3); set-up: key: 0 relating to no activity; 1 relating to weak activity comprising less than 50% of the cells; score 2 relating to strong activity comprising more than 50% of the cells
Procedure, shortened: as §1

KB [2] = experiment: Hoechst 33342 nuclear staining (Table 3); set-up: key: 0 relating to no activity; 1 relating to weak activity comprising less than 50% of the cells; score 2 relating to strong activity comprising more than 50% of the cells
Procedure, shortened: as §1

HBL 100 = experiment: Hoechst 33342 nuclear staining (Table 3); set-up: key: 0 relating to no activity; 1 relating to weak activity comprising less than 50% of the cells; score 2 relating to strong activity comprising more than 50% of the cells
Procedure, shortened: as §1

HT 1080 = experiment: Hoechst 33342 nuclear staining (Table 3); set-up: key: 0 relating to no activity; 1 relating to weak activity comprising less than 50% of the cells; score 2 relating to strong activity comprising more than 50% of the cells
Procedure, shortened: as §1

Jurkat [3] = experiment: Caspase dependencies (Hoechst 33342 readout with zVAD / zFA); set-up: key: 0: no effect; 1: weak effect; 2: strong effect
Method: (§2) This assay is performed in 96 well tissue culture plates. Appropriate number of cells (adherent cells: 3 - 5*10^3, suspension cells: 8 - 10*10^3) are being seeded out in 80 µl complete medium. Adherent cells are incubated for 24 h for proper spreading out before addition of test compounds while suspension cells are immediately treated with test compounds after seeding out. The test compounds are added in 20 µl complete medium containing max 5% DMSO. The final compound concentrations in the assays are 10 µM, 3 µM,1 µM and 0.3 µM, respectively. After 24 h or 48 h incubation at culture conditions, 10 µl medium containing Hoechst 33342 dye (Sigma B-2261) at 2-5 µg/ml are added to each well. The assay plates are then further incubated for 30 minutes and subsequently analyzed with a standard inverted fluorescence microscope. The readout allows the determination of the fraction of apoptotic nuclei as well as other morphological criteria specific for apoptosis as a function of the treatment. The following scores are used: 0 relating to no activity, 1 relating to weak activity comprising less than 50% of the cells and score 2 relating to strong activity comprising more than 50% of the cells.
(§3) Caspase dependencies are being evaluated by combining the compound treatment with the pan-caspase inhibitor zVAD or its control peptide zFA (ICN Pharmaceuticals # FK009 and FK029, respectively). Both peptides are being used at 20 µM concentration. In case of caspase dependencies a clear inhibition of the specific readout in all apoptosis tests should be detected. By comparing the readout of zVAD and zFA treated samples with the compound control it is possible to detect caspase resp. cystein proteinase dependencies. In case of inhibition by zVAD but not by zFA a clear caspase dependency is obvious. An inhibition by zVAD as well as by zFA points towards the involvement of cystein proteinases in the apoptotic cascade. […]

KB [4] = experiment: as above; set-up: key: 0: no effect; 1: weak effect; 2: strong effect
Method: as §2, §3

## CC1(C)Cc2ccccc2-c2c(Br)c3nc4ccccc4nc3n21 [No. 2, 13-Bromo-6,6-dimethyl-5,6-dihydro-6a,7,12-triaza-dibenzo[a,h]fluorene]
Jurkat [1]; 24h, conc 0.3 (µM)
  Hoechst 33342 nuclear staining: 1 (1 relating to weak activity comprising less than 50% of the cells)
Jurkat [1]; 24h, conc 1 (µM)
  Hoechst 33342 nuclear staining: 1 (1 relating to weak activity comprising less than 50% of the cells)
Jurkat [1]; 24h, conc 3 (µM)
  Hoechst 33342 nuclear staining: 2 (score 2 relating to strong activity comprising more than 50% of the cells)
Jurkat [1]; 24h, conc 10 (µM)
  Hoechst 33342 nuclear staining: 2 (score 2 relating to strong activity comprising more than 50% of the cells)
Jurkat [1]; 48h, conc 0.3 (µM)
  Hoechst 33342 nuclear staining: 2 (score 2 relating to strong activity comprising more than 50% of the cells)
Jurkat [1]; 48h, conc 1 (µM)
  Hoechst 33342 nuclear staining: 2 (score 2 relating to strong activity comprising more than 50% of the cells)
Jurkat [1]; 48h, conc 3 (µM)
  Hoechst 33342 nuclear staining: 2 (score 2 relating to strong activity comprising more than 50% of the cells)
Jurkat [1]; 48h, conc 10 (µM)
  Hoechst 33342 nuclear staining: 2 (score 2 relating to strong activity comprising more than 50% of the cells)
HeLa; 24h, conc 0.3 (µM)
  Hoechst 33342 nuclear staining: 0
HeLa; 24h, conc 1 (µM)
  Hoechst 33342 nuclear staining: 0
HeLa; 24h, conc 3 (µM)
  Hoechst 33342 nuclear staining: 0
HeLa; 24h, conc 10 (µM)
  Hoechst 33342 nuclear staining: 0
HeLa; 48h, conc 0.3 (µM)
  Hoechst 33342 nuclear staining: 0
HeLa; 48h, conc 1 (µM)
  Hoechst 33342 nuclear staining: 1 (1 relating to weak activity comprising less than 50% of the cells)
HeLa; 48h, conc 3 (µM)
  Hoechst 33342 nuclear staining: 2 (score 2 relating to strong activity comprising more than 50% of the cells)
HeLa; 48h, conc 10 (µM)
  Hoechst 33342 nuclear staining: 2 (score 2 relating to strong activity comprising more than 50% of the cells)
Ramos; 24h, conc 0.3 (µM)
  Hoechst 33342 nuclear staining: 0
Ramos; 24h, conc 1 (µM)
  Hoechst 33342 nuclear staining: 0
Ramos; 24h, conc 3 (µM)
  Hoechst 33342 nuclear staining: 0
Ramos; 24h, conc 10 (µM)
  Hoechst 33342 nuclear staining: 2 (score 2 relating to strong activity comprising more than 50% of the cells)
Ramos; 48h, conc 0.3 (µM)
  Hoechst 33342 nuclear staining: 2 (score 2 relating to strong activity comprising more than 50% of the cells)
Ramos; 48h, conc 1 (µM)
  Hoechst 33342 nuclear staining: 2 (score 2 relating to strong activity comprising more than 50% of the cells)
Ramos; 48h, conc 3 (µM)
  Hoechst 33342 nuclear staining: 2 (score 2 relating to strong activity comprising more than 50% of the cells)
Ramos; 48h, conc 10 (µM)
  Hoechst 33342 nuclear staining: 2 (score 2 relating to strong activity comprising more than 50% of the cells)
K562; K562, 24h, conc 0.3 (µM)
  Hoechst 33342 nuclear staining: 0
K562; K562, 24h, conc 1 (µM)
  Hoechst 33342 nuclear staining: 0
K562; K562, 24h, conc 3 (µM)
  Hoechst 33342 nuclear staining: 1 (1 relating to weak activity comprising less than 50% of the cells)
K562; K562, 48h, conc 0.3 (µM)
  Hoechst 33342 nuclear staining: 0
K562; K562, 48h, conc 1 (µM)
  Hoechst 33342 nuclear staining: 0
K562; K562, 48h, conc 3 (µM)
  Hoechst 33342 nuclear staining: 2 (score 2 relating to strong activity comprising more than 50% of the cells)
K562; K562, 48h, conc 10 (µM)
  Hoechst 33342 nuclear staining: 2 (score 2 relating to strong activity comprising more than 50% of the cells)
KB [2]; 24h, conc 0.3 (µM)
  Hoechst 33342 nuclear staining: 0
KB [2]; 24h, conc 1 (µM)
  Hoechst 33342 nuclear staining: 0
KB [2]; 24h, conc 3 (µM)
  Hoechst 33342 nuclear staining: 0
KB [2]; 24h, conc 10 (µM)
  Hoechst 33342 nuclear staining: 0
KB [2]; 48h, conc 0.3 (µM)
  Hoechst 33342 nuclear staining: 0
KB [2]; 48h, conc 1 (µM)
  Hoechst 33342 nuclear staining: 0
KB [2]; 48h, conc 3 (µM)
  Hoechst 33342 nuclear staining: 0
KB [2]; 48h, conc 10 (µM)
  Hoechst 33342 nuclear staining: 0
HBL 100; HBL 100, 24h, 0.3 µM
  Hoechst 33342 nuclear staining (fraction of apoptotic nuclei), score: 0
HBL 100; HBL 100, 24h, 1 µM
  Hoechst 33342 nuclear staining (fraction of apoptotic nuclei), score: 0
HBL 100; HBL 100, 24h, 3 µM
  Hoechst 33342 nuclear staining (fraction of apoptotic nuclei), score: 0
HBL 100; HBL 100, 24h, 10 µM
  Hoechst 33342 nuclear staining (fraction of apoptotic nuclei), score: 0
HBL 100; HBL 100, 48h, 0.3 µM
  Hoechst 33342 nuclear staining (fraction of apoptotic nuclei), score: 0
HBL 100; HBL 100, 48h, 1 µM
  Hoechst 33342 nuclear staining (fraction of apoptotic nuclei), score: 0
HBL 100; HBL 100, 48h, 3 µM
  Hoechst 33342 nuclear staining (fraction of apoptotic nuclei), score: 0
HBL 100; HBL 100, 48h, 10 µM
  Hoechst 33342 nuclear staining (fraction of apoptotic nuclei), score: 2 (score 2 relating to strong activity comprising more than 50% of the cells)
HT 1080; HT 1080, 24h, 0.3 µM
  Hoechst 33342 nuclear staining (fraction of apoptotic nuclei), score: 0
HT 1080; HT 1080, 24h, 1 µM
  Hoechst 33342 nuclear staining (fraction of apoptotic nuclei), score: 0
HT 1080; HT 1080, 24h, 3 µM
  Hoechst 33342 nuclear staining (fraction of apoptotic nuclei), score: 0
HT 1080; HT 1080, 24h, 10 µM
  Hoechst 33342 nuclear staining (fraction of apoptotic nuclei), score: 0
HT 1080; HT 1080, 48h, 0.3 µM
  Hoechst 33342 nuclear staining (fraction of apoptotic nuclei), score: 0
HT 1080; HT 1080, 48h, 1 µM
  Hoechst 33342 nuclear staining (fraction of apoptotic nuclei), score: 0
HT 1080; HT 1080, 48h, 3 µM
  Hoechst 33342 nuclear staining (fraction of apoptotic nuclei), score: 0
HT 1080; HT 1080, 48h, 10 µM
  Hoechst 33342 nuclear staining (fraction of apoptotic nuclei), score: 1 (1 relating to weak activity comprising less than 50% of the cells)
Jurkat [3]; 24h, conc 3, no peptide
  nuclear fragmentation visualized by Hoechst 33342 staining: 2
Jurkat [3]; 24h, conc 3, with zFA 20 µM
  nuclear fragmentation visualized by Hoechst 33342 staining: 2
Jurkat [3]; 24h, conc 3, with zVAD 20 µM
  nuclear fragmentation visualized by Hoechst 33342 staining: 2
Jurkat [3]; 48h, conc 3, no peptide
  nuclear fragmentation visualized by Hoechst 33342 staining: 2
Jurkat [3]; 48h, conc 3, with zFA 20 µM
  nuclear fragmentation visualized by Hoechst 33342 staining: 2
Jurkat [3]; 48h, conc 3, with zVAD 20 µM
  nuclear fragmentation visualized by Hoechst 33342 staining: 2
KB [4]; 24h, conc 10, no peptide
  nuclear fragmentation visualized by Hoechst 33342 staining: 2
KB [4]; 24h, conc 10, with zFA 20 µM
  nuclear fragmentation visualized by Hoechst 33342 staining: 1
KB [4]; 24h, conc 10, with zVAD 20 µM
  nuclear fragmentation visualized by Hoechst 33342 staining: 1
KB [4]; 48h, conc 10, no peptide
  nuclear fragmentation visualized by Hoechst 33342 staining: 2
KB [4]; 48h, conc 10, with zFA 20 µM
  nuclear fragmentation visualized by Hoechst 33342 staining: 2
KB [4]; 48h, conc 10, with zVAD 20 µM
  nuclear fragmentation visualized by Hoechst 33342 staining: 2
